Experimental findings from patent US20190038542A1, “MOISTURIZING PERSONAL CARE COMPOSITIONS COMPRISING MONODISPERSE PHYTOGLYCOGEN NANOPARTICLES AND A FURTHER POLYSACCHARIDE” (MIREXUS BIOTECHNOLOGIES INC., priority 2016, published 2019) are described below.

SMILES strings stand for the structures.

A short description of this series: Photostability of phytoglycogen-ethyl-4-aminocinnamate conjugate versus aminocinnamate. Format: physicochemical. The following applies: after 4 h of exposure to UV-irradiation, thin film. As for the experimental part: Aminocinnamate and a phytoglycogen-ethyl-4-aminocinnamate conjugate were dissolved in ethanol or in water, respectively.
Solutions were deposited as thin films onto a quartz plate and dried in air for 30 min. After drying, the samples were irradiated with UV light, as in Example 11, for 4 h and then tested for their photostability.
Photodegradation was calculated from the decrease in the maximum absorption of the respective products.

Molecule `CCOC(=O)C=Cc1ccc(N)cc1` [aminocinnamate, ethyl 4-aminocinnamate] showed an activity retained of 40%.
